Results published in patent publication EP0104611A2, “Thiatriazine derivatives” (HOECHST UK LIMITED, priority 1982, dated 1984).

The molecules below were run on perfused rat stomach (assay: antisecretory activity in the perfused rat stomach (inhibition of histamine- or pentagastrin-stimulated acid secretion)). Settings: iv, amount required to inhibit the histamine- or pentagastrin-stimulated secretion by 50 %, two to four rats per determination, read-out: ID50 (μmoles/kg) Rat perfused stomach i.v.
Format: in vivo
Method: Compounds of this invention were tested for […]- tory activity in the perfused rat stomach. The method of Gosh and Schild, Brit. […] After the secretion plateau was reached, the test compound was administered i.v. and the amount of comound required to inhibit the stimulated secretion by 50 % was determined. Two to four rats were used for each determination. [drawing 17]

| Structure (SMILES) | ED50 |
| --- | --- |
| CN(C)C1=NS(=O)(=O)N=C(NCCSCc2csc(N=C(N)N)n2)N1C [-N(CH3)2] | 0.095 µmol/kg |
| CN1C(N)=NS(=O)(=O)N=C1NCCSCc1csc(N=C(N)N)n1 [-NH2, 3-N-[2-[(2-Guanidino-4-thiazolyl)methylthio]-ethyl]-amino-4-methyl-5-amino-1,2,4,6-thiatriazine-1,1-dioxide] | 0.15 µmol/kg |
| CC(C)NC1=NS(=O)(=O)N=C(NCCSCc2csc(N=C(N)N)n2)N1C [-NH-CH(CH3)2] | 0.28 µmol/kg |
| C#CCNC1=NS(=O)(=O)N=C(NCCSCc2csc(N=C(N)N)n2)N1C [-NHCH2C≡CH] | 0.12 µmol/kg |
| CN1C(NC#N)=NS(=O)(=O)N=C1NCCSCc1csc(N=C(N)N)n1 [-NHCN] | 0.34 µmol/kg |
| CN/C(=N/CCSCc1nc[nH]c1C)NC#N [Cimetidine, reference compound] | 10.8 µmol/kg |
